From US20180000085A1, “USE OF PICOLINAMIDE COMPOUNDS WITH FUNGICIDAL ACTIVITY” (DOW AGROSCIENCES LLC, priority 2014, published 2018)

What was measured:
Type in all cases: in vivo
Phakopsora pachyrhizi = assay: Asian soybean rust (PHAKPA) disease control; design: key: A: > 80; B: ≤ 80; C: Not Tested; D: No Activity Observed in the Reported Assay; conditions: 25 ppm; for PHAKPA disease control, 1DP: 1 Day Protectant; for PHAKPA disease control, 3DC: 3 Day Curative
Zymoseptoria tritici = assay: Leaf blotch of wheat (SEPTTR) disease control on wheat seedlings; conditions: low volume application, 125.1 g/H; for SEPTTR 1DP disease control rating, LV activity at 125.1 g/H: 1 day protectant; for SEPTTR 3DC disease control rating, LV activity at 125.1 g/H: 3 day curative
Puccinia triticina = assay: Wheat brown rust (PUCCRT) disease control on wheat seedlings; conditions: low volume application, 125.1 g/H; for PUCCRT 1DP disease control rating, LV activity at 125.1 g/H: 1 day protectant; for PUCCRT 3DC disease control rating, LV activity at 125.1 g/H: 3 day curative

| Structure (SMILES) | PHAKPA disease control, 1DP (Phakopsora pachyrhizi) | PHAKPA disease control, 3DC (Phakopsora pachyrhizi) | SEPTTR 1DP disease control rating, LV activity at 125.1 g/H (Zymoseptoria tritici) | SEPTTR 3DC disease control rating, LV activity at 125.1 g/H (Zymoseptoria tritici) | PUCCRT 1DP disease control rating, LV activity at 125.1 g/H (Puccinia triticina) | PUCCRT 3DC disease control rating, LV activity at 125.1 g/H (Puccinia triticina) |
| --- | --- | --- | --- | --- | --- | --- |
| COc1ccnc(C(=O)NC(C)C(=O)OC(C)C(OCC(C)C)C2CCCC2)c1OCOC(C)=O (stereo not drawn) [Cmpd 915] | A (> 80) | B (≤ 80) | B (≤ 80) | A (> 80) | A (> 80) | A (> 80) |
| COc1ccnc(C(=O)NC(C)C(=O)OC(C)C(Oc2ccc(C)cc2)C2CCCC2)c1OCOC(C)=O (stereo not drawn) [Cmpd 916] | A (> 80) | D | A (> 80) | B (≤ 80) | A (> 80) | A (> 80) |
| COc1cccc(OC(C2CCCC2)C(C)OC(=O)C(C)NC(=O)c2nccc(OC)c2OCOC(C)=O)c1 (stereo not drawn) [Cmpd 917] | B (≤ 80) | B (≤ 80) | B (≤ 80) | A (> 80) | A (> 80) | A (> 80) |
| COc1ccnc(C(=O)N[C@@H](C)C(=O)O[C@@H](C)[C@H](Oc2ccc(F)cc2)C2CCCC2)c1OC(C)=O [Cmpd 919] | A (> 80) | D | A (> 80) | A (> 80) | A (> 80) | A (> 80) |
| COc1ccnc(C(=O)N[C@@H](C)C(=O)O[C@@H](C)[C@H](Oc2cccc(Cl)c2)C2CCCC2)c1OC(C)=O [Cmpd 920, (S)-(1R,2S)-1-(3-chlorophenoxy)-1-cyclopentylpropan-2-yl-2-(3-acetoxy-4-methoxypicolinamido)propanoate] | B (≤ 80) | B (≤ 80) | A (> 80) | A (> 80) | A (> 80) | A (> 80) |
| COc1ccnc(C(=O)N[C@@H](C)C(=O)O[C@@H](C)[C@H](Oc2ccc(C)cc2)C2CCCC2)c1OC(C)=O [Cmpd 923] | A (> 80) | B (≤ 80) | B (≤ 80) | B (≤ 80) | A (> 80) | A (> 80) |
| COc1ccnc(C(=O)N[C@@H](C)C(=O)O[C@@H](C)[C@H](Oc2ccccc2)c2ccc(F)cc2)c1OCOC(C)=O [Cmpd 924] | A (> 80) | D | A (> 80) | A (> 80) | A (> 80) | A (> 80) |
| COc1ccnc(C(=O)N[C@@H](C)C(=O)O[C@@H](C)[C@H](Oc2ccccc2)c2ccc(F)cc2)c1OC(C)=O [Cmpd 925] | A (> 80) | B (≤ 80) | A (> 80) | A (> 80) | A (> 80) | A (> 80) |
